# Results reported in patent US12202823B2 (QUIMATRYX, S.L., priority 2019, dated 2025).
# Read-outs that look alike come from different tables or passages of the source.
# Key:
# [1] = target: hHDAC5 (Homo sapiens (Human), UniProt Q9UQL6); test: hHDAC5 inhibition protocol; conditions: read-out: IC50 (nM) of enzyme activity HDAC5; selectivity table
# Method: (§1) After enzymatic reactions, reaction was stopped by adding 5 μl of 10 μM solution of a known inhibitor. The fluorescent signal of substrate and product was measured by means of microfluidics mobility assay in a EZ Reader II equipment. The percentage of conversion of substrate into product was calculated by the equipment software based on the area of the peaks.
# (§2) The percentage of conversion data were analyzed using the computer software, Graphpad Prism. In the absence of the compound, the conversion (Ct) in each data set was defined as 100% activity. In the absence of HDAC, the conversion (Cb) in each data set was defined as 0% activity. The percent activity in the presence of each compound was calculated according to the following equation: % inhibition=(Ct−C)/(Ct−Cb), where C=the percentage of conversion in the presence of the compound.
# (§3) The values of % inhibition versus a series of compound concentrations were then plotted using non-linear regression analysis of Sigmoidal dose-response curve generated with the equation Y=B+(T−B)/1+10((Log EC50−X)×Hill Slope), where Y=percent inhibition, B=minimum percent inhibition, T=maximum percent inhibition, X=logarithm of compound and Hill Slope=slope factor or Hill coefficient. The IC50 value was determined by the concentration causing a half-maximal percent activity.
# The buffer assay used in the inhibition hHDAC5 assay is: Hepes 50 mM, KCl 100 mM, Tween 20 0.001%, BSA 0.01%; pH=7.4.
# [2] = target: hHDAC2 (Homo sapiens (Human), UniProt Q92769); test: hHDAC2 inhibition protocol; conditions: read-out: IC50 (nM) of enzyme activity HDAC2; selectivity table
# Sequence of hHDAC2 (Q92769 whole entry): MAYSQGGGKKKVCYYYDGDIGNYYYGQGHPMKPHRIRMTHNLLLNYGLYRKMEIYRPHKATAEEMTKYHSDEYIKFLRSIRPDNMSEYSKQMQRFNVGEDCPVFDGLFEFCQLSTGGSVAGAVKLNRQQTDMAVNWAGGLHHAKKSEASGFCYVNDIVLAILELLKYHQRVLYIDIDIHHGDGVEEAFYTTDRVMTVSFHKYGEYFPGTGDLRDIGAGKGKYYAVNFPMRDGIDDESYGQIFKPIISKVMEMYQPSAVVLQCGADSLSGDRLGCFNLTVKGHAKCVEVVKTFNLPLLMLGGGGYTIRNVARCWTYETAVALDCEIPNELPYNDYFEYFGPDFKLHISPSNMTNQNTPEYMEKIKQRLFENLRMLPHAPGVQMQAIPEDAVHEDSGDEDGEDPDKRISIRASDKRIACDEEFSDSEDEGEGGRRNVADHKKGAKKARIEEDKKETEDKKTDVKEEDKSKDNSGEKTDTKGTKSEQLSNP
# Method: as §1, §2, §3
# The buffer assay used in the inhibition hHDAC2 assay is: Hepes 50 mM, KCl 100 mM, Tween 20 0.001%, BSA 0.01%; pH=7.4.
# [3] = target: hHDAC7 (Homo sapiens (Human), UniProt Q8WUI4); test: hHDAC7 inhibition protocol; conditions: read-out: IC50 (nM) of enzyme activity HDAC7; selectivity table
# Sequence of hHDAC7 (Q8WUI4 whole entry): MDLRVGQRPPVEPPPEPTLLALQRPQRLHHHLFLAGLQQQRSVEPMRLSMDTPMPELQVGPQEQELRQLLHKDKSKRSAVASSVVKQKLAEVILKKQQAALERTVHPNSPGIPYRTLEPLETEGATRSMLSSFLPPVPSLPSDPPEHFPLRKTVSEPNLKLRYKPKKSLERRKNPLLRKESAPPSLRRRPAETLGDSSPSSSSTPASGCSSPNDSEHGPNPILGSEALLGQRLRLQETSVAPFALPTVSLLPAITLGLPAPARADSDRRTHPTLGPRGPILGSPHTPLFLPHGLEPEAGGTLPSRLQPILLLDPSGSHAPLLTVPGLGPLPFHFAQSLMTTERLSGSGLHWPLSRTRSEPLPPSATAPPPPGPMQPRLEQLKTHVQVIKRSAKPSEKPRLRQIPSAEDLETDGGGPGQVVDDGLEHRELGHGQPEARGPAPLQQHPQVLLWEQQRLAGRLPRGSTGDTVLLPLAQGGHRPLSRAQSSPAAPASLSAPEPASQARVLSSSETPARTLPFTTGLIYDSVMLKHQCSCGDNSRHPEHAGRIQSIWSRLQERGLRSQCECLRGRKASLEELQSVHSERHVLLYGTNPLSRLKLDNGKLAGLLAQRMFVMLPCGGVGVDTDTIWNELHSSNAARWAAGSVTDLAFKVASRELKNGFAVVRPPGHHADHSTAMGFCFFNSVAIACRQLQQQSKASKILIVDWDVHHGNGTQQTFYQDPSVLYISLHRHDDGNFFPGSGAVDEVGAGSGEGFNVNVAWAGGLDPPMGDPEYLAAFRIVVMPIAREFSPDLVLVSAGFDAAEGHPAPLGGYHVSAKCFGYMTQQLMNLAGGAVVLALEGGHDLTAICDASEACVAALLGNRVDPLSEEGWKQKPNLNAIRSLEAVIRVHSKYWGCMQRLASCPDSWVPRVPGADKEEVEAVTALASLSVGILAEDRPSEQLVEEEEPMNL
# Method: The fluorescent signal of substrate and product was measured by means of microfluidics mobility assay in a EZ Reader II equipment. The percentage of conversion of substrate into product was calculated by the equipment software based on the area of the peaks.
# as §2, §3
# The buffer assay used in the inhibition hHDAC7 assay is: Hepes 50 mM, KCl 100 mM, Tween 20 0.001%, BSA 0.01%; pH=7.4.
# [4] = target: hHDAC10 (Homo sapiens (Human), UniProt Q969S8); test: HDAC10 inhibition protocol; conditions: read-out: IC50 (nM) of enzyme activity HDAC10; selectivity table
# Method: as §1, §2, §3
# The buffer assay used in the inhibition hHDAC10 assay is: Hepes 50 mM, KCl 100 mM, Tween 20 0.001%, BSA 0.01%; pH=7.4.
# [5] = target: hHDAC1 (Homo sapiens (Human), UniProt Q13547); test: hHDAC1 inhibition protocol; conditions: read-out: IC50 (nM) of enzyme activity HDAC1; selectivity table
# Sequence of hHDAC1 (Q13547 whole entry): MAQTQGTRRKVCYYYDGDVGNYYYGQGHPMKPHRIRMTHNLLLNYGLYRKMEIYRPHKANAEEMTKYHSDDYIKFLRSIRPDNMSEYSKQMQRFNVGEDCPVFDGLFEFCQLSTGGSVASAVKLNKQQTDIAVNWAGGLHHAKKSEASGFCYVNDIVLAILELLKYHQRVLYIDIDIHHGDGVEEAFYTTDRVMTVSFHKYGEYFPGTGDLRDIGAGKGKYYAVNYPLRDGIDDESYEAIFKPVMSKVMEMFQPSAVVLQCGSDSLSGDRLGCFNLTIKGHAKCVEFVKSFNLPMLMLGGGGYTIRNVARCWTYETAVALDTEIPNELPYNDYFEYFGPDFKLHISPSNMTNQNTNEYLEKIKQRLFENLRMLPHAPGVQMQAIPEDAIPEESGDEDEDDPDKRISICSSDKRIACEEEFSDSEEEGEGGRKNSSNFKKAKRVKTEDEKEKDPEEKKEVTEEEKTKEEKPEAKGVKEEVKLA
# Method: as §1, §2, §3
# The buffer assay used in the inhibition hHDAC1 assay is: Hepes 50 mM, KCl 100 mM, Tween 20 0.001%, BSA 0.01%; pH=7.4.
# [6] = target: hHDAC3 (Homo sapiens (Human), UniProt O15379); test: hHDAC3 inhibition protocol; conditions: read-out: IC50 (nM) of enzyme activity HDAC3; selectivity table
# Sequence of hHDAC3 (O15379 whole entry): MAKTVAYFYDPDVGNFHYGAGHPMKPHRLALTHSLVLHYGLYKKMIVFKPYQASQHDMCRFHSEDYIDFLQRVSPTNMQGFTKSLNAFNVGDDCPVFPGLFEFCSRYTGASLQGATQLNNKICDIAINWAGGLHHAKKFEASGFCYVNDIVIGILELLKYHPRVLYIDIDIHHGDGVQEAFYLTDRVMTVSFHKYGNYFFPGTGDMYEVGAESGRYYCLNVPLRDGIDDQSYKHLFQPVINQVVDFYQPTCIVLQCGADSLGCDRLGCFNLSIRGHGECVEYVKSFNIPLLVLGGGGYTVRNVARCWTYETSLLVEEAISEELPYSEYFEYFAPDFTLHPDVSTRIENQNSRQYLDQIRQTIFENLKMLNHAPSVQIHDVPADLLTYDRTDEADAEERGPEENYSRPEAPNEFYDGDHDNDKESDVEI
# Sequence of hHDAC3 (Q9Y618 395-489 partner): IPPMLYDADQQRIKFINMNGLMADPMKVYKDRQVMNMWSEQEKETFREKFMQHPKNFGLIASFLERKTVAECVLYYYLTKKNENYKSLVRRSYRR
# Method: as §1, §2, §3
# The buffer assay used in the inhibition hHDAC3 assay is: Hepes 50 mM, KCl 100 mM, Tween 20 0.001%, BSA 0.01%; pH=7.4.
# [7] = target: hHDAC9 (Homo sapiens (Human), UniProt Q9UKV0); test: hHDAC9 inhibition protocol; conditions: read-out: IC50 (nM) of enzyme activity HDAC9; selectivity table
# Method: as §1, §2, §3
# The buffer assay used in the inhibition hHDAC9 assay is: Hepes 50 mM, KCl 100 mM, Tween 20 0.001%, BSA 0.01%; pH=7.4.
# [8] = target: hHDAC8 (Homo sapiens (Human), UniProt Q9BY41); test: hHDAC8 inhibition protocol; conditions: read-out: IC50 (nM) of enzyme activity HDAC8; selectivity table
# Method: as §1, §2, §3
# The buffer assay used in the inhibition hHDAC8 assay is: Hepes 50 mM, KCl 100 mM, Tween 20 0.001%, BSA 0.01%; pH=7.4.
# [9] = target: hHDAC4 (Homo sapiens (Human), UniProt P56524); test: hHDAC4 inhibition protocol; conditions: read-out: IC50 (nM) of enzyme activity HDAC4; selectivity table
# Method: as §1, §2, §3
# The buffer assay used in the inhibition hHDAC4 assay is: Hepes 50 mM, KCl 100 mM, Tween 20 0.001%, BSA 0.01%; pH=7.4.
# [10] = target: hHDAC6 (Homo sapiens (Human), UniProt Q9UBN7); test: HDAC6 inhibition protocol; conditions: read-out: IC50 (nM) of enzyme activity HDAC6
# Sequence of hHDAC6 (Q9UBN7 whole entry): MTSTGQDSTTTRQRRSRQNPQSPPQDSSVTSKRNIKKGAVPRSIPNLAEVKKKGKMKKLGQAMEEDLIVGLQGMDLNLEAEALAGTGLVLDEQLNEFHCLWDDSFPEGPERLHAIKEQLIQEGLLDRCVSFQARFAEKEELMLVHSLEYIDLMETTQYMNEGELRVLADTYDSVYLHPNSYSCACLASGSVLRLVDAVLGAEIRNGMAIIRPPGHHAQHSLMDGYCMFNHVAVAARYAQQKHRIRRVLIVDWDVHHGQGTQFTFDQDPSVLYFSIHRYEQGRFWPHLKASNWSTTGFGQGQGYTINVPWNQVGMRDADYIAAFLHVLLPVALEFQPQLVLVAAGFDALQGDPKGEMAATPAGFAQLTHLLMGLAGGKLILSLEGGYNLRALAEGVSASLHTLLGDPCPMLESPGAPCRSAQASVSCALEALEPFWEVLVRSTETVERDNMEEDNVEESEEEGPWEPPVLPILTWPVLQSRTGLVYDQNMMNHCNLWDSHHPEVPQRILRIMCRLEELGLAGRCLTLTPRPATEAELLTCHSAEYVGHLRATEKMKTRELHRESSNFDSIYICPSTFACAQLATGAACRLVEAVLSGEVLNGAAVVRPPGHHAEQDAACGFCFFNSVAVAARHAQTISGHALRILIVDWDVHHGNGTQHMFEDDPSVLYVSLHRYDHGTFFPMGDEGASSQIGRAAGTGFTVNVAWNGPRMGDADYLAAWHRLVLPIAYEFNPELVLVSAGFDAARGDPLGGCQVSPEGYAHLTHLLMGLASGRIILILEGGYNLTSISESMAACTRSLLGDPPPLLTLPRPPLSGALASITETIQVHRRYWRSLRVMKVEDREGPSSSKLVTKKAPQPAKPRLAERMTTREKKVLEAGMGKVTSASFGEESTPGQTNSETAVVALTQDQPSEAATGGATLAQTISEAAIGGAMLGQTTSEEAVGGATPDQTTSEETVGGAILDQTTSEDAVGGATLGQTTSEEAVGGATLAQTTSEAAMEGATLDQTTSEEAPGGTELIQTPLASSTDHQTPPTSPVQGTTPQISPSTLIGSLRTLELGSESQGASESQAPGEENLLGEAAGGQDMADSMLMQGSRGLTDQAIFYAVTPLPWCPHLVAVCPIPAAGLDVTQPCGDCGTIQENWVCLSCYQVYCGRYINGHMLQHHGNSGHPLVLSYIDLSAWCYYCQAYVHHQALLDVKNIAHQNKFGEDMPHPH
# Method: as §1, §2, §3
# The buffer assay used in the inhibition hHDAC6 assay is: Hepes 50 mM, KCl 100 mM, Tween 20 0.001%, BSA 0.01%; pH=7.4.
# Sequence of hHDAC5 (Q9UQL6 whole entry): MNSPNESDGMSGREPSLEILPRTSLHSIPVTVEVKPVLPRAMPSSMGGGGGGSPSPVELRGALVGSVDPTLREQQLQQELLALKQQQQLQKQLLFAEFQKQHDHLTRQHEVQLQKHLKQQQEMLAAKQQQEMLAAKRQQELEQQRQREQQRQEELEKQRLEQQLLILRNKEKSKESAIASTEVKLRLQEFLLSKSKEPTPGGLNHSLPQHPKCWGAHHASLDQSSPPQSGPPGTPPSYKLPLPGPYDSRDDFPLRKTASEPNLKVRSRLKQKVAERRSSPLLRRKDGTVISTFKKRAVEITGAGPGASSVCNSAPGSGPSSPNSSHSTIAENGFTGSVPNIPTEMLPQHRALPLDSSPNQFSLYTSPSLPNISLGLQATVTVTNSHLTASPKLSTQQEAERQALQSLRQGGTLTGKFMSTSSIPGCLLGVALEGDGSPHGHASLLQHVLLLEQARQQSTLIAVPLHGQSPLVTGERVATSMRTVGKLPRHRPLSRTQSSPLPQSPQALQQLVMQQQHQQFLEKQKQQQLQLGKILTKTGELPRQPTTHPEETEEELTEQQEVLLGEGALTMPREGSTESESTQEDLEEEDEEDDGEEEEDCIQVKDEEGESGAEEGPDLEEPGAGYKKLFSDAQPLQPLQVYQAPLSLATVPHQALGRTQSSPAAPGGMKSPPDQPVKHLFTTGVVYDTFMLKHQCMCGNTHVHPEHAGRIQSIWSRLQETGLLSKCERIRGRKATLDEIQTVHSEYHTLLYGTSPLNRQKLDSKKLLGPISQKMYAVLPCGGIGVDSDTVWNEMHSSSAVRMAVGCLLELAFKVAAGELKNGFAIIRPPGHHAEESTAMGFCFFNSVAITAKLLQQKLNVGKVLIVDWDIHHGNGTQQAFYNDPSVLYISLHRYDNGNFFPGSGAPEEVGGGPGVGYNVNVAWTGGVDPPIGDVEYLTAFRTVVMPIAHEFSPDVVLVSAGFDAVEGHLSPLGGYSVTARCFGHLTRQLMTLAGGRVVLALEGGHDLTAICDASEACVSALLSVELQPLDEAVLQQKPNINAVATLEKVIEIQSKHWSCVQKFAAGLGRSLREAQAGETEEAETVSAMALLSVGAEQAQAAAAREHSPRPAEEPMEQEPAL
compound,measurement,setting,value
"FC(F)c1nnc(-c2ccc(Cn3nnc4ccccc43)cc2)o1 [Example 11, 2-(4-((1H-benzo[d][1,2,3]triazol-1-yl)methyl)phenyl)-5-(difluoromethyl)-1,3,4-oxadiazole]",IC50,[1],> 10000 nM
same,IC50,[2],> 10000 nM
same,IC50,[3],> 10000 nM
same,IC50,[4],> 10000 nM
same,IC50,[5],> 10000 nM
same,IC50,[6],> 10000 nM
same,IC50,[7],> 10000 nM
same,IC50,[8],> 10000 nM
same,IC50,[9],> 10000 nM
same,IC50,"[10]; hHDAC6 1.20 nM, Acetylated Peptide A 2 μM, 1 hour at RT",171 nM
same,IC50,[10]; selectivity table,171 nM
